Measured values: patent publication US5945436A, “Pyridylmethyl nitriles, amides and thioamides useful as fungicides” (Uniroyal Chemical Company, Inc., priority 1997, dated 1999)

Assays:
Pyricularia oryzae = assay: whole plant or invertebrate; assay type: in vivo; conditions: for pest or weed control at 1000 µg/mL: Pyricularia oryzae, in Hordeum vulgare, foliar, 216 h, read-out: Percent Reduction of Disease, PYR ORY, barley, foliar, 1,000 mg/l; for Percent Reduction of Disease, PYR ORY: barley, foliar, 1,000 mg/l
Botrytis cinerea = assay: Fungal growth inhibition, treated disc on agar (BOT CIN); assay type: cell-based; conditions: disc dipped in 500 mg/l, 29° C.; for inhibition at 500 µg/mL: Botrytis cinerea, read-out: Percent Growth Inhibition, BOT CIN
Experimental: (§1) The treated and untreated discs were then placed on agar plates and one of the following fungus species: Septoria nodorum (SEP NOD), Botrytis cinerea (BOT CIN), Fusarium oxysporum (FUS OXY), Pythium ultimum (PYT ULT), Rhizoctonia solani (RHI SOL), Colletotrichum gossypii (COL GOS), and Scierotinia minor (SCL MIN), was added to the center of each disc in the form of a culture plug with the fungus mat in contact with the paper of the test disc. Cercosporidium personatum (CER PER), was added to discs as a spore suspension (20,000 spores/ml) to the disc (two drops of spore suspension per disc), rather than a mycelial culture plug. The plates were then incubated at 29° C. in an oven.
(§2) With the exception of the discs containing Cercosporidium personatum, the discs were evaluated by first measuring the radius from the center of the fungus colony on the treated discs and on the untreated discs. Percent growth inhibition of each of the compounds tested was determined as a function of the difference between the radius of the fungus colony on the treated disc versus the radius of the fungus colony on the untreated disc.

Helminthosporium sativum = assay: Barley spot blotch, foliar treatment (HEL SAT); assay type: in vivo; conditions: foliar, 1,000 mg/l; for pest or weed control at 1000 µg/mL: Helminthosporium, foliar, 216 h, read-out: Percent Reduction of Disease, HEL SAT
How it was run: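 Six-day-old "Robust" barley, 10 plants per pot, sprayed at 1,000 mg/l (acetone solution emulsified in water with TWEEN 20) or left unsprayed as controls. All plants then inoculated with H. sativum spores, held 24 h at 99% humidity, then 8 days in greenhouse at 21° C. Percent control computed.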

[1] = test system: Cercosporidium personatum; assay: Fungal germination and growth, treated disc on agar, scored (CER PER); assay type: cell-based; set-up: key: 100: Complete inhibition of germination and growth.; 80: Nearly complete inhibition but some growth.; 50: Partial inhibition of growth or, early complete inhibition but later growth begins.; 20: Some inhibition of growth, but not significant.; 0: No inhibition of growth; conditions: disc dipped in 500 mg/l, 29° C., numerical score 0-100, spore suspension
From the text: Filter paper discs, each 11 mm. in diameter, were dipped in each of the test solutions. The discs were allowed to air dry to drive off the acetone solvent. A number of untreated discs were used as controls. The treated and untreated discs were then placed on agar plates and one of the following fungus species: Septoria nodorum (SEP NOD), Botrytis cinerea (BOT CIN), Fusarium oxysporum (FUS OXY), Pythium ultimum ([…]), Rhizoctonia solani (RHI SOL), Colletotrichum gossypii (COL GOS), and Scierotinia minor (SCL MIN), was added to the center of each disc in the form of a culture plug with the fungus mat in contact with the paper of the test disc. Cercosporidium personatum (CER PER), was added to discs as a spore suspension (20,000 spores/ml) to the disc (two drops of spore suspension per disc), rather than a mycelial culture plug. The plates were then incubated at 29° C. in an oven. In the case of the Cercosporidium personatum (CER PER) fungi, scoring was done on a numerical basis as follows: 100=Complete inhibition of germination and growth. 80=Nearly complete inhibition but some growth. 50=Partial inhibition of growth or, early complete inhibition but later growth begins. 20=Some inhibition of growth, but not significant. 0=No inhibition of growth. The results of all the above tests appear in Table III below under the headings "SEP NOD," "BOT CIN," "FUS OXY," "[…]" "COL GOS" and "CER PER".

Colletotrichum gossypii = assay: Fungal growth inhibition, treated disc on agar (COL GOS); assay type: cell-based; conditions: disc dipped in 500 mg/l, 29° C.; for inhibition at 500 µg/mL: Colletotrichum gossypii, read-out: Percent Growth Inhibition, COL GOS
Experimental: as §1, §2

Erysiphe cichoracearum = assay: Powdery mildew of cucumber, systemic root uptake (CMS); assay type: in vivo; conditions: 45 ml of 250 mg/l, 8 days after inoculation
How it was run: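 Pot soil of barley (BMS) and cucumber (CMS) plants was drenched with 45 ml of a 250 mg/l acetone/Tween 20 aqueous emulsion, with untreated plants as controls. Disease was scored on a rating scale that included intermediate grades.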

Scierotinia minor = assay: Fungal growth inhibition, treated disc on agar (SCL MIN); assay type: cell-based; conditions: disc dipped in 500 mg/l, 29° C.; for inhibition at 500 µg/mL: read-out: Percent Growth Inhibition, SCL MIN
Experimental: as §1, §2

Septoria nodorum = assay: Fungal growth inhibition, treated disc on agar (SEP NOD); assay type: cell-based; conditions: disc dipped in 500 mg/l, 29° C.; for inhibition at 500 µg/mL: Parastagonospora nodorum, read-out: Percent Growth Inhibition, SEP NOD
Experimental: as §1, §2

Row | SMILES | pest or weed control at 1000 µg/mL (Pyricularia oryzae) [%] | inhibition at 500 µg/mL (Botrytis cinerea) [%] | pest or weed control at 1000 µg/mL (Helminthosporium sativum) [%] | CER PER inhibition score [1] | inhibition at 500 µg/mL (Colletotrichum gossypii) [%] | Percent Reduction of Disease, CMS (Erysiphe cichoracearum) [%] | inhibition at 500 µg/mL (Scierotinia minor) [%] | inhibition at 500 µg/mL (Septoria nodorum) [%] | Percent Reduction of Disease, PYR ORY (Pyricularia oryzae) [%] | Percent Growth Inhibition, BOT CIN (Botrytis cinerea) [%] | Percent Reduction of Disease, HEL SAT (Helminthosporium sativum) [%] | Percent Growth Inhibition, COL GOS (Colletotrichum gossypii) [%] | Percent Growth Inhibition, SCL MIN (Scierotinia minor) [%] | Percent Growth Inhibition, SEP NOD (Septoria nodorum) [%]
1 | C#CCC(C#N)(CCc1ccc(OC)cc1)c1cccnc1 (stereo not drawn) [Compound 38] | 17 | 100 | 100 | 0 | 100 | 0 | 46 | 100 |  |  |  |  |  | 
2 | CC(C)CC(C#N)(CCc1ccc(F)cc1)c1cccnc1 (stereo not drawn) [Compound 39] | 100 | 57 | 100 | 0 | 75 | 0 | 42 | 8 |  |  |  |  |  | 
3 | C=CCC(C#N)(CCc1ccc(OCC)cc1)c1cccnc1 (stereo not drawn) [Compound 40] | 92 | 100 | 100 | 0 | 100 | 0 | 100 | 100 |  |  |  |  |  | 
4 | C#CCC(C#N)(CCc1ccc(F)cc1)c1cccnc1 (stereo not drawn) [Compound 41] | 92 | 32 | 100 | 0 | 100 | 0 | 48 | 63 |  |  |  |  |  | 
5 | CCCCC(C#N)(CCc1ccc(OCC)cc1)c1cccnc1.Cl (stereo not drawn) [Compound 42, α-butyl-4-ethoxy-α-(3-pyridinyl)-benzenebutanenitrile hydrochloride] |  |  |  | 0 |  | 0 |  |  | 67 | 100 | 100 | 100 | 44 | 100
6 | CCOc1ccc(CCC(C#N)(CC(C)C)c2cccnc2)cc1 (stereo not drawn) [Compound 43] | 100 | 100 | 100 | 100 | 94 | 0 | 100 | 100 |  |  |  |  |  | 
7 | CCCCCCC(C#N)(CCc1ccc(OCC)cc1)c1cccnc1 (stereo not drawn) [Compound 44] | 17 | 43 | 100 | 100 | 100 | 0 | 100 | 100 |  |  |  |  |  | 
8 | CCCCCCC(C#N)(CCc1ccc(F)cc1)c1cccnc1 (stereo not drawn) [Compound 45] | 17 | 100 | 100 | 100 | 100 | 67 | 100 | 100 |  |  |  |  |  | 
9 | CCCC(C#N)(CCc1ccc(OCC)cc1)c1cccnc1 (stereo not drawn) [Compound 46] | 0 | 100 | 100 | 0 | 100 | 0 | 100 | 100 |  |  |  |  |  | 
10 | CC(C)=CCC(C#N)(CCc1ccc(F)cc1)c1cccnc1 (stereo not drawn) [Compound 47] | 0 | 100 | 100 | 0 | 100 | 0 | 100 | 100 |  |  |  |  |  | 
11 | COc1ccc(CCC(C#N)(CC=C(C)C)c2cccnc2)cc1 (stereo not drawn) [Compound 48] | 33 | 100 | 100 | 50 | 100 | 0 | 100 | 100 |  |  |  |  |  | 
12 | CC(C)CCC(C#N)(CCc1ccc(F)cc1)c1cccnc1 (stereo not drawn) [Compound 49] |  |  | 100 | 0 |  | 0 |  |  | 17 | 100 |  | 100 | 100 | 100
13 | COCC(C#N)(CCc1ccc(OC)cc1)c1cccnc1 (stereo not drawn) [Compound 50] | 0 | 0 | 100 | 0 | 100 | 0 | 100 | 100 |  |  |  |  |  | 
14 | COCC(C#N)(CCc1ccc(F)cc1)c1cccnc1 (stereo not drawn) [Compound 51] | 20 | 100 | 90 | 100 | 100 | 0 | 100 | 100 |  |  |  |  |  | 
15 | N#CC(CCc1ccc(F)cc1)(CC(F)(F)F)c1cccnc1 (stereo not drawn) [Compound 52] | 90 | 100 | 100 | 100 | 100 | 85 | 100 | 100 |  |  |  |  |  | 
16 | N#CC(CCF)(CCc1ccc(F)cc1)c1cccnc1 (stereo not drawn) [Compound 53] | 70 | 100 | 90 | 0 | 100 | 0 | 100 | 100 |  |  |  |  |  | 
17 | CCCCOc1ccc(CCC(C#N)(CCCC)c2cccnc2)cc1 (stereo not drawn) [Compound 54] | 90 | 100 | 100 | 0 | 100 | 0 | 100 | 100 |  |  |  |  |  | 
18 | CC(C)CCC(C#N)(CCc1ccc(F)cc1)c1cccnc1 (stereo not drawn) [Compound 55] |  |  |  | 0 |  | 0 |  |  | 70 | 40 | 90 | 30 | 55 | 10
19 | C=CCC(C#N)(CCc1ccc(OCCCC)cc1)c1cccnc1 (stereo not drawn) [Compound 56] | 90 | 100 | 100 | 0 | 35 | 0 | 45 | 40 |  |  |  |  |  | 
20 | CCCCOc1ccc(CCC(C#N)(CCC)c2cccnc2)cc1 (stereo not drawn) [Compound 57] | 100 | 30 | 100 | 0 | 15 | 0 | 65 | 40 |  |  |  |  |  | 
21 | CCCCOc1ccc(CCC(C#N)(CC(C)C)c2cccnc2)cc1 (stereo not drawn) [Compound 58] | 85 | 10 | 0 | 0 | 15 | 0 | 75 | 70 |  |  |  |  |  | 
